# Earlier results, collected in patent publication US20140105862A1, “STREPTOMYCES MICROFLAVUS STRAINS AND METHODS OF THEIR USE TO CONTROL PLANT DISEASES AND PESTS” (priority 2012, published 2014).
# Assays:
# powdery mildew = details: according to GB 1 507 193
# [1] = tested on: parasites on animals, such as pin worm; details: according to U.S. Pat. No. 3,849,398
# [2] = tested on: gram-positive, gram-negative bacteria and tubercule bacillus; details: according to U.S. Pat. No. 3,849,398
SMILES,antifungal activity (powdery mildew),parasiticidal action [1],antibacterial activity [2]
NC(N)=NCC(O)CC(O)(C(=O)O)[C@H]1O[C@@H](n2cc(CO)c(N)nc2=O)C=C[C@@H]1NC(=O)[C@@H](N)CO (stereo partly drawn) [Strain B-98891],antifungal activity,,
CNCC(=O)NC(CO)C(=O)NC1C(C(N)=O)OC(n2ccc(N)nc2=O)C(O)C1O (stereo not drawn) [gougerotin],,parasiticidal action,weak antibacterial activity
